Three compounds from article PMC4864567, “Characterization of the ATP-Dependent Lon-Like Protease in Methanobrevibacter smithii” (Archaea, 2016) can be followed below.

Test [1] has as its target T1, Lon-like-Ms (Methanobrevibacter smithii, UniProt A5UP31).
T1 construct: gene Msm_1754
T1 sequence (A5UP31 1-682): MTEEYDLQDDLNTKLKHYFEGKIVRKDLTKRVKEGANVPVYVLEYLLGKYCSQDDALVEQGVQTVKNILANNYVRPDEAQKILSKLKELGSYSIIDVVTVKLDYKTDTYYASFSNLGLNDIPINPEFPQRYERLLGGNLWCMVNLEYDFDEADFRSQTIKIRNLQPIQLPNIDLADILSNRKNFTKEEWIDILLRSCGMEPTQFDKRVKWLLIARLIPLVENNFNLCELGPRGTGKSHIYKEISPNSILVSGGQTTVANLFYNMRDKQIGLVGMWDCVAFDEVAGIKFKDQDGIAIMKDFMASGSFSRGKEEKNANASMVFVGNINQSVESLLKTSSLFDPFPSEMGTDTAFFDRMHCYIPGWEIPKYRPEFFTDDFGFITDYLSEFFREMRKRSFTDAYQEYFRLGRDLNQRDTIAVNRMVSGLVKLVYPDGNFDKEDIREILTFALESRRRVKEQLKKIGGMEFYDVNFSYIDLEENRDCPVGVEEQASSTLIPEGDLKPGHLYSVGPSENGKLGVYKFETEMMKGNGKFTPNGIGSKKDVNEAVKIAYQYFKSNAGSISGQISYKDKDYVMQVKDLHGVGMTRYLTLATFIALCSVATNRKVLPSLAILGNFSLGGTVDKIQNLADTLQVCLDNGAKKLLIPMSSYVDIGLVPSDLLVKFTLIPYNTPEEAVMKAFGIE
Nature of the test: fluorogenic peptide cleavage (MNA release). Format: biochemical. To be noted: 0.3 mM Glt-AAF-MNA, 10 mM MgCl2, pH 8.0, 37 °C; nucleotide required for activity, inhibitory at rising concentration; not a fitted IC50. The source says:
fluorogenic peptide cleavage (MNA release) on Lon-like-Ms | reaching a decrease by half at 1-mM ATP or AMP-PNP

Test [2] deals with T1, Lon-like-Ms. Nature of the test: fluorogenic peptide cleavage (MNA release). It is filed as biochemical. The note with it: ADP in place of ATP, with Mg2+; Glt-AAF-MNA, pH 8.0, 37 °C; called inhibitory, partial activity retained.

As for `Nc1ncnc2c1ncn2[C@@H]1O[C@H](COP(=O)(O)OP(=O)(O)NP(=O)(O)O)[C@@H](O)[C@H]1O` [5′-adenylyl imidodiphosphate], the “concentration giving decrease by half” value on Lon-like-Ms [1] is ~ 1 mM.
`Nc1ncnc2c1ncn2[C@@H]1O[C@H](COP(=O)(O)OP(=O)(O)OP(=O)(O)O)[C@@H](O)[C@H]1O` [ATP]: the “concentration giving decrease by half” value at Lon-like-Ms [1] was ~ 1 mM.
Regarding `Nc1ncnc2c1ncn2[C@@H]1O[C@H](COP(=O)(O)OP(=O)(O)O)[C@@H](O)[C@H]1O` [ADP], at Lon-like-Ms [2], the “fluorogenic peptide cleavage (MNA release)” value is listed as “ADP, a potent inhibitor of Lon from E. coli, also inhibited the activity of Lon-like-Ms”.
